The target in series [1] is T1, Receptor tyrosine-protein kinase erbB-2 (Homo sapiens, UniProt P04626). Kind of series: Inhibition of HER2 (unknown origin).
The next series deals with BaF3. The experiment in a line: Antiproliferative activity against mouse BaF3 cells harboring HER2 YVMA mutant measured for 24 hrs by CellTiter-Glo assay. The format is functional, cell-based. The following applies: BaF3, 24 h.
Series [2] is described as follows: Half life in human. The format is ADME.
The subject of series [3] is BT-474. The experiment in a line: Antiproliferative activity against human BT-474 cells. The format is functional, cell-based.
For series [4], the target named is T1, Receptor tyrosine-protein kinase erbB-2. The experiment in a line: Inhibition of flag-tagged HER2 (unknown origin) extracted from Escherichia coli.
In series [5] the target is T2, Epidermal growth factor receptor (Homo sapiens, UniProt P00533).
T2 sequence (P00533 whole entry): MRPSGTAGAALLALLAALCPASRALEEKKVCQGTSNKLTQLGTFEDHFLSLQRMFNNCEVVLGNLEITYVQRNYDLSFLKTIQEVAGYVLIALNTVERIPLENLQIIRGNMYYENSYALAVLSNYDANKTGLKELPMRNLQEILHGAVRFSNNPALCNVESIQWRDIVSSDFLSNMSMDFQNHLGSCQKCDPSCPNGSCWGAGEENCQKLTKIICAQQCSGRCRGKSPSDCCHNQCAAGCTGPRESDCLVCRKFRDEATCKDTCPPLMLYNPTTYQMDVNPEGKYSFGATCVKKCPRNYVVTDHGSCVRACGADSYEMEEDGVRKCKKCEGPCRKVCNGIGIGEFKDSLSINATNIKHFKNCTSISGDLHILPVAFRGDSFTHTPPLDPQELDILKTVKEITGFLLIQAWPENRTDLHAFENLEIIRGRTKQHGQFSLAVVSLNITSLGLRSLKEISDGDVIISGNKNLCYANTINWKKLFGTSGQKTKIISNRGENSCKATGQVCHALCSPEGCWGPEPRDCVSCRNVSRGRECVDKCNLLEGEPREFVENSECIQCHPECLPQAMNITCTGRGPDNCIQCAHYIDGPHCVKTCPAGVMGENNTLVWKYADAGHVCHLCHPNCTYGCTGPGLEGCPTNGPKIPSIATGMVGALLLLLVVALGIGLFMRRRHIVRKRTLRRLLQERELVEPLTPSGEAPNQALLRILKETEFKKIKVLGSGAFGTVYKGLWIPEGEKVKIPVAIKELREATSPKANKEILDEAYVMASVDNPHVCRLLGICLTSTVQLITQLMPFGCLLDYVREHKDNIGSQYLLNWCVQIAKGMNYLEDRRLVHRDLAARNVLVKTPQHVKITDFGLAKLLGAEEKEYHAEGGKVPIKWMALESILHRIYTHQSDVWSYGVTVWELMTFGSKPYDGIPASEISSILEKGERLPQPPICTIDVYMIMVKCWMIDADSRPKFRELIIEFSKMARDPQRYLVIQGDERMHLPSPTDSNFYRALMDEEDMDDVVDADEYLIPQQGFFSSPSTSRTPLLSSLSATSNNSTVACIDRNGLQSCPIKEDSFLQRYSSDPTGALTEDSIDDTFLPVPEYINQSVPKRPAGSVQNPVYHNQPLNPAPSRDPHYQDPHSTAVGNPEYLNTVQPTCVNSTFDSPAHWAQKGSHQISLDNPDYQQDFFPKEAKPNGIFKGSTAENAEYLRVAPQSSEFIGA
Description: Inhibition of EGFR (unknown origin)
Series [6] can be described thus: Antiproliferative activity against human NCI-H1975 cells harboring EGFR L858R mutant assessed as reduction in cell viability measured after 72 hrs by MTT assay. The format is functional, cell-based. The following applies: NCI-H1975, 72 h.
In series [7] the target is T1, Receptor tyrosine-protein kinase erbB-2. Kind of series: Inhibition of wild-type HER2 phosphorylation in human BT-474 cells. In kind it is cell-based.
Series [8] shares this target. Kind of series: Inhibition of human wild type HER2 using PolyEY as substrate pre-incubated for 30 mins followed by substrate addition and measured for 60 mins by spectrophotometric analysis.
Series [9] concerns the target T2, Epidermal growth factor receptor. Kind of series: Inhibition of human wild type EGFR using PolyEY as substrate pre-incubated for 30 mins followed by substrate addition and measured for 60 mins by spectrophotometric analysis.
For series [10], the system named is NCI-N87. The experiment in a line: Antiproliferative activity against human NCI-N87 cells. The format is functional, cell-based.
Series [11] can be described thus: Clearance in rat. The following applies: in vivo. The format is ADME.
The next series has as its system SK-BR-3. The experiment in a line: Antiproliferative activity against human SK-BR-3 cells assessed as reduction in cell growth incubated for 72 hrs by MTT assay. In kind it is functional, cell-based. The following applies: SK-BR-3, 72 h.
Series [12] has as its system BT-474. The experiment in a line: Antiproliferative activity against human BT-474 cells assessed as reduction in cell growth. In kind it is functional, cell-based.
Series [13] is described as follows: Metabolic stability in human liver microsomes assessed as half life incubated for 60 mins by LC-MS/MS analysis. In kind it is ADME, Microsome.
Series [14] relates to NCI-N87. The experiment in a line: Antiproliferative activity against human NCI-N87 cells assessed as cell growth measured for 48 hrs by MTT assay. The format is functional, cell-based. The note with it: NCI-N87, 48 h.
For series [15], the target named is Receptor tyrosine-protein kinase erbB-2 (Homo sapiens, UniProt P04626, D769Y). The experiment in a line: Inhibition of HER2 D769Y mutant (unknown origin).
Receptor tyrosine-protein kinase erbB-2 (Homo sapiens, UniProt P04626, D769Y), sequence (P04626 23-1255 D769Y limits assumed): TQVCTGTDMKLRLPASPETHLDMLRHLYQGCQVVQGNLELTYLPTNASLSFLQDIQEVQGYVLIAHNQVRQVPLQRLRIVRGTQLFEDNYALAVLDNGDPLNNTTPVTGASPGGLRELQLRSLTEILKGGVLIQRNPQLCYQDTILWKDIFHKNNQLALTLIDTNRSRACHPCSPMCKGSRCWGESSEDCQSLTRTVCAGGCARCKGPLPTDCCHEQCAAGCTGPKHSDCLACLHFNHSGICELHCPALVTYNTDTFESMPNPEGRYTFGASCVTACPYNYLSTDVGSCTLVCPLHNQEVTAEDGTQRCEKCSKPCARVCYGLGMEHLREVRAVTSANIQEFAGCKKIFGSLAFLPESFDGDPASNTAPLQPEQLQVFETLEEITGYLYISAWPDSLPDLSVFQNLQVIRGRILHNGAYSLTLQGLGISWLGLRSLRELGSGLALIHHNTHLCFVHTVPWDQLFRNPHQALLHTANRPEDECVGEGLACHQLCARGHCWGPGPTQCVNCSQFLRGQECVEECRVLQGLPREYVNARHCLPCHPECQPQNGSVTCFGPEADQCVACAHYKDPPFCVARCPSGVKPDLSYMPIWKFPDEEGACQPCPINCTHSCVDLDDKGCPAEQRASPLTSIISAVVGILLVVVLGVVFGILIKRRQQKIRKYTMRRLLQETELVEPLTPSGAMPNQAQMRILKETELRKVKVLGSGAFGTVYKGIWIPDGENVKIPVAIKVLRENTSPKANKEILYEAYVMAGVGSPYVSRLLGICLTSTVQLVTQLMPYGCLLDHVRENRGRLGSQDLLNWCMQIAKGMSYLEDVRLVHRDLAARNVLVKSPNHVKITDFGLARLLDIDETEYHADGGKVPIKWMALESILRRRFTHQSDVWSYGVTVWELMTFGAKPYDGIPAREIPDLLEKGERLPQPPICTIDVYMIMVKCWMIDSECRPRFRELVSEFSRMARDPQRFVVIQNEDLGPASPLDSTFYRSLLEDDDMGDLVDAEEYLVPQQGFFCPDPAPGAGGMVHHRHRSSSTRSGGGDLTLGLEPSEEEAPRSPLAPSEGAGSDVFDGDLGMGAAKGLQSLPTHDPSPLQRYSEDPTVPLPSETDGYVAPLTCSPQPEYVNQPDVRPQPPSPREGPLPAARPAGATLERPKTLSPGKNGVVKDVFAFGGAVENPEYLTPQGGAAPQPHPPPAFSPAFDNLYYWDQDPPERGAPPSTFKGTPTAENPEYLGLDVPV
Series [16] in a line: Metabolic stability in human liver microsomes assessed as half life. The format is ADME, Microsome.
In series [17] the target is Receptor tyrosine-protein kinase erbB-2 (Homo sapiens, UniProt P04626, D769H). The experiment in a line: Inhibition of HER2 D769H mutant (unknown origin).
Receptor tyrosine-protein kinase erbB-2 (Homo sapiens, UniProt P04626, D769H), sequence (P04626 23-1255 D769H limits assumed): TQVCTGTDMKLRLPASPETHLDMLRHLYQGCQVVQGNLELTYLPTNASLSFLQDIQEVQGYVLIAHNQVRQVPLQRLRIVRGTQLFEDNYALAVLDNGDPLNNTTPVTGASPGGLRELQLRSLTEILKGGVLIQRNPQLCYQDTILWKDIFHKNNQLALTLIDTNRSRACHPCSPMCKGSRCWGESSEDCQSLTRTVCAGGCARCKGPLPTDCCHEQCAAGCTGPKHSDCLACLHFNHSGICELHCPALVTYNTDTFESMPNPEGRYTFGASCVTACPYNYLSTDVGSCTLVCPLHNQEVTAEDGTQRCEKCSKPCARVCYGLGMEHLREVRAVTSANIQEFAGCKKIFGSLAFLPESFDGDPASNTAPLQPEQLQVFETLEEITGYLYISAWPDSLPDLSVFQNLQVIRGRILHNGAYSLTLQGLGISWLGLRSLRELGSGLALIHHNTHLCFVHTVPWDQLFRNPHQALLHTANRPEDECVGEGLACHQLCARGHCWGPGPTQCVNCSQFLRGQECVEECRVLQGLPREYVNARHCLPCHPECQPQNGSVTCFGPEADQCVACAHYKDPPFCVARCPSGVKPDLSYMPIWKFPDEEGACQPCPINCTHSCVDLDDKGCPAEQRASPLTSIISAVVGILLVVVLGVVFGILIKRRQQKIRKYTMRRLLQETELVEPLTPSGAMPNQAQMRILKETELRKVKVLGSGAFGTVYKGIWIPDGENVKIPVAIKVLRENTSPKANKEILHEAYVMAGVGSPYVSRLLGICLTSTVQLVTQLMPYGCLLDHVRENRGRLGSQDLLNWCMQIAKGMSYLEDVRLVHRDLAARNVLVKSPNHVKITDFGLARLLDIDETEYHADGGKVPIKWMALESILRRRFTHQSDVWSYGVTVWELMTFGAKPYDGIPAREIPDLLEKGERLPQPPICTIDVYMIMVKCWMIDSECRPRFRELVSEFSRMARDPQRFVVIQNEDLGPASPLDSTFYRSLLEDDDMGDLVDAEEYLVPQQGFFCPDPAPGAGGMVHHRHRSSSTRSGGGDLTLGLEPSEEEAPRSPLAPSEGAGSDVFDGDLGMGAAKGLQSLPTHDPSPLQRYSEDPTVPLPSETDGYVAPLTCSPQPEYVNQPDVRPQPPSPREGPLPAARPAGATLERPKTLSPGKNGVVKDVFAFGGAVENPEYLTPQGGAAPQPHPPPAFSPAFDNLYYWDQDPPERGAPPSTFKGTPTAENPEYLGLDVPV

The results in this text go back to ChEMBL document CHEMBL6083185, “Unraveling the future: Innovative design strategies and emerging challenges in HER2-targeted tyrosine kinase inhibitors for cancer therapy” (Eur J Med Chem, 2024).

Each structure is given as a SMILES string. A value given as a limit tells only on which side of the number the result lay.

T1 sequence (P04626 whole entry): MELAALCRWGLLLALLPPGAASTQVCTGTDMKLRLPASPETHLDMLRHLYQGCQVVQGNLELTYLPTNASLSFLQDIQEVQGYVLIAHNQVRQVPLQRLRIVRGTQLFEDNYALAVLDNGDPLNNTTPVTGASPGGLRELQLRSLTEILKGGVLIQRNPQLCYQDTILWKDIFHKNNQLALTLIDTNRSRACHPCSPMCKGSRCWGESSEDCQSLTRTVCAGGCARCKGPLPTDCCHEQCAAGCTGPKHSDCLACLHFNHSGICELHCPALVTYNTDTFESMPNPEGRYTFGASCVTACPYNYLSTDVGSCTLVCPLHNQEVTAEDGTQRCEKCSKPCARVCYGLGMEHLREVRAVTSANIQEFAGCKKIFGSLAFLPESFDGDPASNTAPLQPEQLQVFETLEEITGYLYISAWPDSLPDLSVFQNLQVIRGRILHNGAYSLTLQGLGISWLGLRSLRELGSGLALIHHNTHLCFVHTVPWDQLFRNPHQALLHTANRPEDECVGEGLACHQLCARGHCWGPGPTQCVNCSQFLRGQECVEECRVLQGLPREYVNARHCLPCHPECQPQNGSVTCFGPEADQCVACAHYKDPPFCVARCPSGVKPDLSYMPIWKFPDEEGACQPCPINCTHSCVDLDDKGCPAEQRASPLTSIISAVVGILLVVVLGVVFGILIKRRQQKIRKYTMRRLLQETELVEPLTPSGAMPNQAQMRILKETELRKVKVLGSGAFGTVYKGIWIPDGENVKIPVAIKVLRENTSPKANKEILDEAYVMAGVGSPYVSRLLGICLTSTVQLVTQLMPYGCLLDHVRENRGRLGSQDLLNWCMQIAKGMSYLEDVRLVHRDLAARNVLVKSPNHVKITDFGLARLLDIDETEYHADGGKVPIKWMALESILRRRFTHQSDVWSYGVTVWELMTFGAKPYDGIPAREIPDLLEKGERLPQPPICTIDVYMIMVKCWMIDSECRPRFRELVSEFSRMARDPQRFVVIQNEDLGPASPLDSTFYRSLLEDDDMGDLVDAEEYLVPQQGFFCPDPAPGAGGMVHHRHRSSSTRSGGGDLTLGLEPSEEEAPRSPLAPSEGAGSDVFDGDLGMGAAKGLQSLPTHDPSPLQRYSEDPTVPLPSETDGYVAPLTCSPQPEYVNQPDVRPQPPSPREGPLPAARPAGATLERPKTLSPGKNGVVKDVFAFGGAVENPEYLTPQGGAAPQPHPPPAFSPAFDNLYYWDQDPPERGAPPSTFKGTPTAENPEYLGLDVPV

Consider `C=CC(=O)Nc1cccc(-c2c(-c3ccc(N4CCN(C)CC4)cc3)[nH]c3ncnc(Nc4ccc(OCc5ccccn5)c(Cl)c4)c23)c1`, for which, in series [1], the concentration for half-maximal inhibition (IC50) was ~2.3 nM.

In the case of `C=CC(=O)Nc1cccc(-c2c[nH]c3ncnc(Nc4ccc(OCc5ccccn5)c(Cl)c4)c23)c1`, the IC50 in the series with BaF3 was 17 nM.

With `CN1CCN(CCCOc2ccc3ncnc(Nc4ccc(OCc5cccc(F)c5)c(Cl)c4)c3c2)CC1`, the half-life in series [2] came to 0.957 h. Also, the IC50 in the series on BT-474 [3] came out at 80 nM; in series [4], 12 nM.

`C=CC(=O)N1CCN(C(=O)Oc2cc3c(Nc4cccc(Cl)c4F)ncnc3cc2OC)[C@H](C)C1` returned an IC50 in [1] of 152 nM.

Regarding `C=CC(=O)N1C[C@@H]2C[C@H]1CN2C(=O)Oc1cc2c(Nc3ccc(Cl)c(Cl)c3F)ncnc2cc1OC`, half-maximal inhibition in series [1] (IC50) required 6.07 nM.

With `C=CC(=O)N1CCC[C@@H](n2nc(C(=O)Nc3ccc(CC(=O)N(C)C)c(C)c3C)c3c(N)ncnc32)C1`, the IC50 in [1] was 16.4 nM; in [5], 65 nM.

For the compound `CCOc1cc2ncc(C#N)c(Nc3ccc(Oc4ccn5ncnc5c4)c(C)c3)c2cc1NC(=O)/C=C/CN(C)C`, the 50% inhibitory concentration (IC50) in [1] stood at 2.21 nM; in [5] it was 7.04 nM.

In the case of `CCOCCOc1cc2ncnc(Nc3ccc(OCc4ccccn4)c(Cl)c3)c2cc1NC(=O)/C=C/CN(C)C`, the IC50 in series [6] was 60.6 nM; in [5], 1.01 nM.

On to `Cc1cc(Nc2ncnc3ccc(NC(=O)/C=C/[C@H]4CCCN4C)cc23)ccc1Oc1cc2ncnn2cn1`, for which the concentration for half-maximal inhibition (IC50) in series [1] turned out to be 1.4 nM; in series [5], 1.19 nM.

`Cc1cc(Nc2ncnc3cccc(O[C@H]4CCN(C)CC4(F)F)c23)ccc1Oc1ccn2ncnc2c1`: the half-inhibitory concentration (IC50) in series [7] amounted to 5.8 nM.

For the compound `COc1cc2c(Nc3ccc(Oc4ccn5ncnc5c4)c(C)c3)ncnc2cc1OCCCN1CCN(CCCCCCCNc2ccc3c(c2)C(=O)N(C2CCC(=O)NC2=O)C3=O)CC1` (centres undefined), the IC50 in series [1] amounted to 0.04 nM.

`C=CC(=O)N1CCN(c2ncc3ncnc(Nc4ccc(Oc5ccn6ncnc6c5)c(C)c4)c3n2)CC1`: the half-inhibitory concentration (IC50) came to 5.8 nM in the series on BaF3, 5.8 nM in series [8] and 2200 nM in [9].

Turning to `COc1cc2ncnc(Nc3ccc(Oc4cccc5ccc(C)nc45)c(C)c3)c2cc1OC`, the IC50 in series [1] turned out to be 14 nM; in series [5] it was 11 nM.

For the compound `CCOc1cc2ncnc(Nc3ccc(Oc4ccn5ncnc5c4)c(C)c3)c2cc1NC(=O)/C=C/[C@H]1CCCN1C`, the concentration for half-maximal inhibition (IC50) worked out at 2.13 nM in the series with BT-474 [3], 1.67 nM in [1], 1.36 nM in series [5] and 1.12 nM in the series with NCI-N87 [10].

`COCCOc1cc2ncnc(Nc3ccc(Oc4cccc5ccc(C)nc45)c(C)c3)c2cc1OCCOC`: the IC50 in series [1] and in [5] was 12 nM in each case.

`COCCOc1ccc2ncnc(Nc3ccc(Oc4cccc5ccc(C)nc45)c(C)c3)c2c1`: the concentration for half-maximal inhibition (IC50) in series [1] was determined as 42 nM; in series [5], 143 nM.

Turning to `O=C(Nc1ccc2ncnc(Nc3ccc(OCc4cccc(F)c4)c(Cl)c3)c2c1)c1ccc(CNCCO)cc1`, the half-maximal inhibitory concentration (IC50) with BT-474 [3] came to 200 nM; in [1], 12 nM. The clearance in [11] was ≤ 9.6 mL/min/kg.

In the case of `C=CC(=O)N1CCC[C@@H](n2nc(-c3ccc(OCc4cccc(C)n4)cc3)c3c(N)ncnc32)C1`, the results for the IC50 in series [1] and in series [5] were 16.4 nM and 0.12 nM, respectively.

In the case of `C=CC(=O)N1CCN(c2ncc3ncnc(Nc4ccc(Oc5ccccc5)c(C)c4)c3n2)CC1`, the IC50 in the series on BaF3 stood at 12 nM; in [8] it was 12 nM; in series [9] it was 200 nM.

`Cc1ccc2cccc(Oc3ccc(Nc4ncnc5ccc(NC6CCCC6)cc45)cc3C)c2n1`: the figures for the IC50 (with SK-BR-3; in series [1]; in series [5]) were 238 nM, 8 nM and 155 nM, respectively.

As to `COc1ccc2c(Nc3ccc(Oc4cccc5ccc(C)nc45)c(C)c3)ncnc2c1`, the values for the concentration for half-maximal inhibition (IC50) in series [1] and in [5] were 239 nM and 166 nM, respectively.

Turning to `Cc1ccc2cccc(Oc3ccc(Nc4ncnc5ccc(NC(=O)C6CCCC6)cc45)cc3C)c2n1`, the half-inhibitory concentration (IC50) in [1] stood at 314 nM; in series [5] it was 2010 nM.

For the compound `C=CC(=O)N1CCN(c2ncc3ncnc(Nc4ccc(Oc5ccc6c(c5)ncn6C)c(C)c4)c3n2)CC1`, the IC50 in the series with BaF3 was 16 nM; in series [8] it was 16 nM; in series [9] it was > 5 nM.

`Cc1cc(Nc2ncnc3cccc(OC4CCN(C)CC4)c23)ccc1Oc1ccn2ncnc2c1` came in with an IC50 in series [7] of 18 nM.

`Cc1cc(Nc2ncnc3ccc(NC(=O)/C=C/[C@H]4CCCN4C)cc23)ccc1Oc1ccn2ncnc2c1`: the figures for the 50% inhibitory concentration (IC50) with BT-474 [12] and in the series on NCI-N87 [14] were 2.4 nM and 2.65 nM, respectively. In addition, the half-life in [13] is > 116 h.

`C=CC(=O)N1CCC(Oc2cc3c(Nc4ccc(Cl)c(Cl)c4F)ncnc3cc2OC)CC1` [POZIOTINIB] displayed a half-inhibitory concentration (IC50) in [1] of 1.69 nM.

In turn, `CCOc1cc2ncc(C#N)c(Nc3ccc(OCc4ccccn4)c(Cl)c3)c2cc1NC(=O)/C=C/[C@H]1CCCN1C` [PYROTINIB] returned a half-inhibitory concentration (IC50) in series [1] of 38 nM.

In the case of `CCOc1cc2ncnc(Nc3ccc(Oc4ccn5ncnc5c4)c(C)c3)c2cc1NC(=O)/C(F)=C/[C@H]1CCCN1C` [SPH-5030], the IC50 is < 1 nM in [15]; 2.01 nM in the series with BT-474 [3]; < 1 nM in series [17]; 3.51 nM in series [1]; 8.13 nM in series [5]; 1.09 nM in the series on NCI-N87 [10]. In addition, the half-life in series [16] was 9.24 h.

In the case of `Cc1cc(Nc2ncnc3ccc(NC4=NC(C)(C)CO4)cc23)ccc1Oc1ccn2ncnc2c1` [TUCATINIB], the IC50 in series [1] is 8 nM; in [5], > 500 nM.

With `C=CC(=O)NC1CCN(c2ncc3ncnc(Nc4ccc(Oc5ccc6c(c5)ncn6C)c(C)c4)c3n2)CC1` [ZONGERTINIB], the concentration for half-maximal inhibition (IC50) in [1] worked out at 13 nM.
